Measurements: patent publication US9113629B2, “4-amino-6-(4-substituted-phenyl)-picolinates and 6-amino-2-(4-substituted-phenyl)-pyrimidine-4-carboxylates and their use as herbicides” (DOW AGROSCIENCES LLC, priority 2013, dated 2015)
Like-named read-outs stand apart in the source and are kept apart here.

Assays:
Assay in all cases: Post-emergent Test III, herbicidal activity in wheat and barley
Assay type in all cases: in vivo
[1] = tested on: TRZSS: wheat, including spring and winter (Triticum aestivum); conditions: for pest or weed control at 35 g/ha / pest or weed control at 70 g/ha / pest or weed control at 140 g/ha: Triticum aestivum, post-emergence, 504 h; for pest or weed control at 35 g/ha: 35 g ai/ha; for pest or weed control at 70 g/ha: 70 g ai/ha; for pest or weed control at 140 g/ha: 140 g ai/ha
Procedure: (§1) Post-emergent Test III. Seeds of the desired test plant species were planted in Sun Gro MetroMix® 306 planting mixture, which typically has a pH of 6.0 to 6.8 and an organic matter content of about 30 percent, in plastic pots with a surface area of 103.2 square centimeters (cm^2). When required to ensure good germination and healthy plants, a fungicide treatment and/or other chemical or physical treatment was applied. The plants were grown for 7-36 days (d) in a greenhouse with an approximate 14 hour (h) photoperiod which was maintained at about 18° C. during the day and 17° C. during the night. Nutrients and water were added on a regular basis and supplemental lighting was provided with overhead metal halide 1000-Watt lamps as necessary. The plants were employed for testing when they reached the second or third true leaf stage.
(§2) A weighed amount, determined by the highest rate to be tested, of each test compound was placed in a 25 mL glass vial and was dissolved in 4 mL of a 97:3 v/v mixture of acetone and DMSO to obtain concentrated stock solutions. […] The concentrated stock solutions obtained were diluted with 20 mL of an aqueous mixture containing acetone, water, isopropyl alcohol, DMSO, Agri-Dex crop oil concentrate, and X-77 surfactant in a 48:39:10:1.5:1.5:0.02 v/v ratio to obtain spray solutions containing the highest application rates. Additional application rates were obtained by serial dilution of 12 mL of the high rate solution into a solution containing 2 mL of 97:3 v/v mixture of acetone and DMSO and 10 mL of an aqueous mixture containing acetone, water, isopropyl alcohol, DMSO, Agri-Dex crop oil concentrate, and X-77 surfactant in a 48:39:10:1.5:1.5:0.02 v/v ratio to obtain ½×, ¼×, ⅛× and 1/16× rates of the high rate. Compound requirements are based upon a 12 mL application volume at a rate of 187 liters per hectare (L/ha). Formulated compounds were applied to the plant material with an overhead Mandel track sprayer equipped with 8002E nozzles calibrated to deliver 187 L/ha over an application area of 0.503 square meters at a spray height of 18 inches (43 cm) above the average plant canopy height. Control plants were sprayed in the same manner with the solvent blank.
(§3) The treated plants and control plants were placed in a greenhouse as described above and watered by subirrigation to prevent wash-off of the test compounds. After 21 d, the condition of the test plants as compared with that of the untreated plants was determined visually and scored on a scale of 0 to 100 percent where 0 corresponds to no injury and 100 corresponds to complete kill.
(§4) By applying the well-accepted probit analysis as described by J. Berkson in Journal of the American Statistical Society, 48, 565 (1953) and by D. Finney in “Probit Analysis” Cambridge University Press (1952), herbicidal injury of a specific compound at various rates can be used to calculate GR20, GR50, GR80 and GR90 values, which are defined as growth reduction factors that correspond to the effective dose of herbicide required to provide plant growth reduction (GR) of 20 percent, 50 percent, 80 percent and 90 percent, respectively. Probit analysis was applied to data collected from multiple dose rates of individual compounds utilizing the procedures explained in the following examples. The analysis of those dose rates is captured in the following tables.

[2] = tested on: KCHSC: kochia (Kochia scoparia); conditions: for pest or weed control at 35 g/ha / pest or weed control at 70 g/ha / pest or weed control at 140 g/ha: Bassia scoparia, post-emergence, 504 h; for pest or weed control at 35 g/ha: 35 g ai/ha; for pest or weed control at 70 g/ha: 70 g ai/ha; for GR50 KCHSC: dose for 50 percent growth reduction; for GR50 KCHSC / GR80 KCHSC: probit analysis; for GR80 KCHSC: dose for 80 percent growth reduction; for pest or weed control at 140 g/ha: 140 g ai/ha
Procedure: as §1, §2, §3, §4

[3] = tested on: MATSS: scented mayweed (Matricaria chamomilla), pineappleweed (Matricaria matricarioides); conditions: for pest or weed control at 35 g/ha / pest or weed control at 70 g/ha / pest or weed control at 140 g/ha: Matricaria chamomilla, post-emergence, 504 h; for pest or weed control at 35 g/ha: 35 g ai/ha; for pest or weed control at 70 g/ha: 70 g ai/ha; for GR50 MATSS: dose for 50 percent growth reduction; for GR50 MATSS / GR80 MATSS: probit analysis; for GR80 MATSS: dose for 80 percent growth reduction; for pest or weed control at 140 g/ha: 140 g ai/ha
Procedure: as §1, §2, §3, §4

[4] = tested on: HORSS: barley, including spring and winter (Hordeum vulgare); conditions: for pest or weed control at 35 g/ha / pest or weed control at 70 g/ha / pest or weed control at 140 g/ha: Hordeum vulgare, post-emergence, 504 h; for pest or weed control at 35 g/ha: 35 g ai/ha; for pest or weed control at 70 g/ha: 70 g ai/ha; for pest or weed control at 140 g/ha: 140 g ai/ha
Procedure: as §1, §2, §3, §4

[5] = Table 8, dose for 20 percent growth reduction, probit analysis, 21 d
[6] = Table 8, post-emergent, 21 d, read-out: Visual Growth Reduction (%) 21 Days After Application TRZSS
[7] = Table 8, post-emergent, 21 d, read-out: Visual Growth Reduction (%) 21 Days After Application KCHSC
[8] = Table 8, post-emergent, 21 d, read-out: Visual Growth Reduction (%) 21 Days After Application MATSS
[9] = Table 8, post-emergent, 21 d, read-out: Visual Growth Reduction (%) 21 Days After Application HORSS
[10] = Table 8, dose for 80 percent growth reduction, probit analysis, 21 d
[11] = 21 days after application, read-out: Visual Gorowth Reduction (%) 21 days After Application TRZSS
[12] = probit analysis, dose for 20 percent growth reduction (crop), 21 days after application
[13] = 21 days after application, read-out: Visual Gorowth Reduction (%) 21 days After Application KCHSC
[14] = 21 days after application, read-out: Visual Gorowth Reduction (%) 21 days After Application MATSS
[15] = 21 days after application, read-out: Visual Gorowth Reduction (%) 21 days After Application HORSS

Structure (SMILES)	GR20 TRZSS [1, 5] [g ai/ha]	pest or weed control at 35 g/ha [1, 6] [%]	pest or weed control at 70 g/ha [1, 6] [%]	pest or weed control at 35 g/ha [2, 7] [%]	pest or weed control at 70 g/ha [2, 7] [%]	GR50 KCHSC ([2]; Table 8, 21 d) [g ai/ha]	GR80 KCHSC ([2]; Table 8, 21 d) [g ai/ha]	pest or weed control at 35 g/ha [3, 8] [%]	pest or weed control at 70 g/ha [3, 8] [%]	GR50 MATSS ([3]; Table 8, 21 d) [g ai/ha]	GR80 MATSS ([3]; Table 8, 21 d) [g ai/ha]	pest or weed control at 35 g/ha [4, 9] [%]	pest or weed control at 70 g/ha [4, 9] [%]	GR20 HORSS [4, 5] [g ai/ha]	other results
COc1c(N)nc(-c2ccc(I)c(F)c2)nc1C(=O)O [Compound 37, 6-Amino-2-(3-fluoro-4-iodophenyl)-5-methoxypyrimidine-4-carboxylic acid]	3	75 to 84	85 to 94	45 to 59	60 to 74	34	119	60 to 74	60 to 74	21	77	60 to 74	75 to 84	5	–
COC(=O)c1nc(-c2ccc(Br)c(F)c2)nc(N)c1OC [Compound 171, Methyl 6-amino-2-(4-bromo-3-fluorophenyl)-5-methoxypyrimidine-4-carboxylate]	11	75 to 84	85 to 94	85 to 94	95 to 100	–	23	30 to 44	30 to 44	>140	>140	45 to 59	60 to 74	20	–
COC(=O)c1nc(-c2ccc(C#N)c(F)c2)c(F)c(N)c1Cl [Compound 135, methyl 4-amino-3-chloro-6-(4-cyano-3-fluorophenyl)-5-fluoropicolinate]	16	30 to 44	30 to 44	75 to 84	75 to 84	3	130	30 to 44	30 to 44	125	>140	0 to 29	30 to 44	37	GR80 TRZSS [1, 10]: >140 g ai/ha; pest or weed control at 140 g/ha [1, 6]: 45 to 59%; pest or weed control at 140 g/ha [2, 7]: 75 to 84%; pest or weed control at 140 g/ha [3, 8]: 45 to 59%; pest or weed control at 140 g/ha [4, 9]: 60 to 74%; GR80 HORSS [4, 10]: >140 g ai/ha
Nc1cc(-c2ccc(I)cc2F)nc(C(=O)O)c1Cl [Compound 124]	1	85 to 94	85 to 94	85 to 94	85 to 94	3	29	75 to 84	85 to 94	–	32	85 to 94	95 to 100	1	–
COC(=O)c1nc(-c2ccc(I)c(F)c2)c(C)c(N)c1Cl [Compound 79, Methyl 4-amino-3-chloro-6-(3-fluoro-4-iodophenyl)-5-methylpicolinate]	2	75 to 84	85 to 94	60 to 74	75 to 84	24	70	75 to 84	85 to 94	13	46	85 to 94	85 to 94	1	–
Nc1c(Cl)c(C(=O)O)nc(-c2ccc(I)c(F)c2)c1Cl [Compound 145, 4-Amino-3,5-dichloro-6-(3-fluoro-4-iodophenyl)picolinic acid]	1	85 to 94	85 to 94	60 to 74	60 to 74	37	112	95 to 100	95 to 100	3	10	85 to 94	95 to 100	1	pest or weed control at 140 g/ha [1, 6]: 85 to 94%; pest or weed control at 140 g/ha [2, 7]: 75 to 84%; pest or weed control at 140 g/ha [3, 8]: 95 to 100%; pest or weed control at 140 g/ha [4, 9]: 95 to 100%
C=Cc1c(C(=O)O)nc(-c2ccc(C(F)(F)F)c(F)c2)c(F)c1N [Compound 86]	–	–	–	–	–	–	–	–	–	–	–	–	–	–	pest or weed control at 35 g/ha [1, 11]: 60 to 74%; pest or weed control at 70 g/ha [1, 11]: 60 to 74%; GR20 TRZSS [1, 12]: 1 g ai/ha; pest or weed control at 35 g/ha [2, 13]: 75 to 84%; pest or weed control at 70 g/ha [2, 13]: 75 to 84%; GR50 KCHSC ([2]; 21 days after application): 12 g ai/ha; GR80 KCHSC ([2]; 21 days after application): 55 g ai/ha; pest or weed control at 35 g/ha [3, 14]: 60 to 74%; pest or weed control at 70 g/ha [3, 14]: 60 to 74%; GR50 MATSS ([3]; 21 days after application): 22 g ai/ha; GR80 MATSS ([3]; 21 days after application): 85 g ai/ha; pest or weed control at 35 g/ha [4, 15]: 30 to 44%; pest or weed control at 70 g/ha [4, 15]: 30 to 44%; GR20 HORSS [4, 12]: 14 g ai/ha
